Test results reported in patent publication US11066369B2, “N-(pyridin-2-yl)pyridine-sulfonamide derivatives and their use in the treatment of disease” (Novartis AG, priority 2016, dated 2021).
Where a name gives a salt, the structure may show the parent alone. Read-outs that look alike come from different tables or passages of the source.

Target: T1, horseradish peroxidase (HRP) tagged delF508-CFTR (Homo sapiens, UniProt P13569, DEL508-508)
T1 construct: expressed in transfected cells
Experiment: Measurement of delF508-CFTR-HRP surface expression in CFBE41o- cells;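 on DelF508-CFTR-HRP Amax %: percent efficacy relative to reference corrector lumacaftor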
Type: cell-based
Conditions: CFBE41o- cells; for Emax: read-out: DelF508-CFTR-HRP Amax %; for EC50: read-out: DelF508-CFTR-HRP EC50
Source text: Measurement of delF508-CFTR-HRP Surface Expression in CFBE41o-Cells
This assay quantifies the cell surface expressions of the mutant CFTR channel using an extracellular HRP tag.
A cellular assay was developed to measure surface expression of horseradish peroxidase (HRP) tagged delF508-CFTR in the human bronchial epithelial immortalized CFBE41o-cell line (Phuan, P. W., et al, (2014) Molecular Pharmacology 86:42-51). Specifically, the HRP sequence was inserted into the fourth extracellular loop of delF508-CFTR and stably expressed in CFBE41o-cells. Cells were seeded in 384 well plate at a density of 5000 cells/well and incubated at 37° C. for 12 to 24 hours in medium (Gibco MEM #11095, 10% FBS, 10 mM HEPES, […], 200 μg/mL G418, 3 μg/mL Puromycin). The delF508-CFTR-HRP expression was induced with 500 ng/mL doxycycline (Sigma D-9891, dissolved in H2O and sterile filtered) in medium and the cells were incubated at 37° C. for 48h. Old medium was removed and fresh medium was added containing 500 ng/mL doxycycline and unknown test compound at required test concentration in DMSO, not exceeding 0.5% final DMSO concentration. The highest concentration tested was 10 μM with a 10-point concentration response curve using a 3-fold dilution. After addition of compounds, the cells were incubated for 24h at 37° C. On the final day, cells were washed four times in PBS containing 1 mM MgCl2 and 0.1 mM CaCl2. HRP-Substrate (SuperSignal ELISA Pico, Fisher #37069) 20 μl/well was added and the luminescence signal was determined (Viewlux, Perkin Elmer). Light was emitted upon addition of exogenous HRP-Substrate only when delF508-CFTR-HRP reached the cell surface and the HRP tag was accessible to the HRP-Substrate (note: HRP-Substrate cannot cross the lipid bilayer to reach delF508-CFTR-HRP misfolded within the cell).
The median activity for the lowest concentration of the compounds on each assay plate was calculated and this value was used to normalize the signal for each well on the respective plate. Three replicates at each concentrations for every compound were run to determine one EC50. The median value was determined and used to calculate compound activities as described below. Effective half maximal values (EC50) were calculated for each compound by performing logistic regression on measured dose-response data points using the equation:
[formula] where “Y” is the observed activity, “Bottom” is the lowest observed value, “Top” is the highest observed value, and the “Hill coefficient” gives the largest absolute value of the slope. The curve fitting is carried out by a curve fitting program implemented at GNF using Matlab (Mathworks).
The dose response curves also were used to calculate Fold Change (FC) using the equation: […]
Compound efficacy relative to the reference compound 3-(6-(1-(2,2-difluorobenzo[d][1,3]dioxol-5-yl)cyclopropane-1-carboxamido)-3-methylpyridin-2-yl)benzoic acid was determined using the following formula: […]

[1] = delF508-CFTR-HRP surface expression
[2] = mean of at least two replicates

T1 sequence (P13569 with tags, fused parts or gaps DEL508-508): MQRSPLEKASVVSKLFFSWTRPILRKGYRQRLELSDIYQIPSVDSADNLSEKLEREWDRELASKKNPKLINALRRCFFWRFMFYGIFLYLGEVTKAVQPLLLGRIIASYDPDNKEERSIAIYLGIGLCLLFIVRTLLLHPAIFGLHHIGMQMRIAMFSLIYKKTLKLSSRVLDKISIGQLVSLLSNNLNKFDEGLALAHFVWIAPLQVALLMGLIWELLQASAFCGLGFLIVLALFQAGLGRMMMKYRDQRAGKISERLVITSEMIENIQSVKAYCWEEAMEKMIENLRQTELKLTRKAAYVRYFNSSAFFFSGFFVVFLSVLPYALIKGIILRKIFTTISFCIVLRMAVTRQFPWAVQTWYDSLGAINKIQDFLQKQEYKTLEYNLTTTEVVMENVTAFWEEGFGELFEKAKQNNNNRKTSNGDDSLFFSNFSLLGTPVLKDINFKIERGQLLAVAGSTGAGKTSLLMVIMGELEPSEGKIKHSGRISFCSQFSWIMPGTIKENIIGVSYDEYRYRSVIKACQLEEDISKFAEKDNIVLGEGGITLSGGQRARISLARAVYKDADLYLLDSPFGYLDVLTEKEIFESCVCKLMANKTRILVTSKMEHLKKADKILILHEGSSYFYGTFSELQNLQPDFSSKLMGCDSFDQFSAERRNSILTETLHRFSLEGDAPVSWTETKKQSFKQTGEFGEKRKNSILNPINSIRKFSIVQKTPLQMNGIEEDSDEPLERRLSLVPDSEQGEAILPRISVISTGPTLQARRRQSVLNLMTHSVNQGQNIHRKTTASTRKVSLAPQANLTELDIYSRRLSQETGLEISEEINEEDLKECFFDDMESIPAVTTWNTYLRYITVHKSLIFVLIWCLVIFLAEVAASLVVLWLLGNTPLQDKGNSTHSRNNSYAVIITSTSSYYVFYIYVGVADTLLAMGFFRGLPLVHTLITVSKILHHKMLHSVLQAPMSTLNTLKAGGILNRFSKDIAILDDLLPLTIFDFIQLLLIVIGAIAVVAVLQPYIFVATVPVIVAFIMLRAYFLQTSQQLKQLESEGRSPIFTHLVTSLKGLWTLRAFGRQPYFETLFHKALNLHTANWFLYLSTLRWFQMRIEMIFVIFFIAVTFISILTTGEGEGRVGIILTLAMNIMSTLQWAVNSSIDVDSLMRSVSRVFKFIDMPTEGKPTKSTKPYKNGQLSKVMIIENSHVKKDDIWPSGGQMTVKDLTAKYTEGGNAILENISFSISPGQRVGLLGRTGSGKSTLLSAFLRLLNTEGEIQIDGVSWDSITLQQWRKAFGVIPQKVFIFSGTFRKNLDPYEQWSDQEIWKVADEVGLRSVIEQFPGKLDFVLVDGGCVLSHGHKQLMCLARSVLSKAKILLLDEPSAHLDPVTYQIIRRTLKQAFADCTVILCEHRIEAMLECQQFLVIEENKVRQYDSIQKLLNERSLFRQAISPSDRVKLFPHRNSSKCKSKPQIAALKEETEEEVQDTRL

| SMILES | Emax [1] | EC50 [1] | EC50 [2] | Emax (surface expression Amax) |
| --- | --- | --- | --- | --- |
| Cc1cccc(C)c1-c1nc(NS(=O)(=O)c2cccc(N3CCC(NC(=O)OC(C)(C)C)(C(=O)O)CC3)n2)ccc1Cl [Example 268, 4-{[(tert-butoxy)carbonyl]amino}-1-(6-{[5-chloro-6-(2,6-dimethylphenyl)pyridin-2-yl]sulfamoyl}pyridin-2-yl)piperidine-4-carboxylic Acid] | 103% | 3730 nM | – | – |
| Cc1ccccc1-c1nc(NS(=O)(=O)c2cccc(NC3CCC(C(=O)O)CC3)n2)ccc1C(F)(F)F (stereo not drawn) [Example 372, 4-((6-(N-(6-(o-tolyl)-5-(trifluoromethyl)pyridin-2-yl)sulfamoyl)pyridin-2-yl)amino)cyclohexanecarboxylic Acid] | 554% | 2250 nM | – | – |
| CCCc1ccccc1-c1nc(NS(=O)(=O)c2cccc(N3CCC(C)(C(=O)O)CC3)n2)ccc1C(F)(F)F [Example 398, 4-methyl-1-(6-(N-(6-(2-propylphenyl)-5-(trifluoromethyl)pyridin-2-yl)sulfamoyl)pyridin-2-yl)piperidine-4-carboxylic Acid] | – | – | 615 nM | 711% |
| CC(C)c1ccccc1-c1nc(NS(=O)(=O)c2cccc(N3CCC[C@@](C)(C(=O)O)C3)n2)ccc1C(F)(F)F [Example 384, (R)-1-(6-(N-(6-(2-isopropylphenyl)-5-(trifluoromethyl)pyridin-2-yl)sulfamoyl)pyridin-2-yl)-3-methylpiperidine-3-carboxylic Acid] | – | – | 501 nM | – |
| Cc1ccc(F)cc1-c1nc(NS(=O)(=O)c2cccc(N3CCN(C(C)(C)C)CC3)n2)ccc1C(F)(F)F [Example 143, 6-(4-(tert-butyl)piperazin-1-yl)-N-(6-(5-fluoro-2-methylphenyl)-5-(trifluoromethyl)pyridin-2-yl)pyridine-2-sulfonamide] | 888% | 2990 nM | – | – |
| Cc1ccccc1-c1nc(NS(=O)(=O)c2cccc(N[C@@H]3CCNC[C@@H]3O)n2)ccc1C(F)(F)F (relative stereo) [Example 113, 6-(((3S,4R)-3-hydroxypiperidin-4-yl)amino)-N-(6-(o-tolyl)-5-(trifluoromethyl)pyridin-2-yl)pyridine-2-sulfonamide Hydrochloride] | 72% | 4220 nM | – | – |
| CC1(C(=O)O)CCN(c2cccc(S(=O)(=O)Nc3ccc(Cl)c(-c4ccccc4C4CC4)n3)n2)CC1 [Example 430, 1-(6-(N-(5-chloro-6-(2-cyclopropylphenyl)pyridin-2-yl)sulfamoyl)pyridin-2-yl)-4-methylpiperidine-4-carboxylic Acid] | – | – | 1710 nM | 370% |
| Cc1ccc(C(F)(F)F)cc1-c1nc(NS(=O)(=O)c2ccnc(N)c2)ccc1Cl [Example 49, 2-amino-N-(5-chloro-6-(2-methyl-5-(trifluoromethyl)phenyl)pyridin-2-yl)pyridine-4-sulfonamide] | 333% | 3050 nM | – | – |
| Cc1cccc(C)c1-c1nc(NS(=O)(=O)c2cccc(N3CCN(C(=O)OC(C)(C)C)CC3=O)n2)ccc1Cl [Example 188, tert-butyl 4-(6-(N-(5-chloro-6-(2,6-dimethylphenyl)pyridin-2-yl)sulfamoyl)pyridin-2-yl)-3-oxopiperazine-1-carboxylate] | 658% | 971 nM | – | – |
| O=C(O)C1CC12CCN(c1cccc(S(=O)(=O)Nc3ccc(C(F)(F)F)c(-c4ccccc4C4CC4)n3)n1)C2 (stereo not drawn) [Example 420, 5-(6-(N-(6-(2-cyclopropylphenyl)-5-(trifluoromethyl)pyridin-2-yl)sulfamoyl)pyridin-2-yl)-5-azaspiro[2.4]heptane-1-carboxylic Acid] | – | – | 1920 nM | 705% |
| COc1ccc(Cl)cc1-c1nc(NS(=O)(=O)c2cccc(N3CCCC(C)(C(=O)O)C3)n2)ccc1C(F)(F)F (stereo not drawn) [Example 432, 1-(6-(N-(6-(5-chloro-2-methoxyphenyl)-5-(trifluoromethyl)pyridin-2-yl)sulfamoyl)pyridin-2-yl)-3-methylpiperidine-3-carboxylic Acid] | – | – | 1920 nM | 596% |
| Cc1ccccc1-c1nc(NS(=O)(=O)c2cccc(N3CC[C@H](C(=O)O)C3)n2)ccc1C(F)(F)F [Example 348, (3S)-1-(6-{[6-(2-methylphenyl)-5-(trifluoromethyl)pyridin-2-yl]sulfamoyl}pyridin-2-yl)pyrrolidine-3-carboxylic Acid] | 145% | 2830 nM | – | – |
| CC(C)c1ccccc1-c1nc(NS(=O)(=O)c2cccc(N3CCC[C@@](C)(C(=O)O)C3)n2)ccc1Cl [Example 392, (R)-1-(6-(N-(5-chloro-6-(2-isopropylphenyl)pyridin-2-yl)sulfamoyl)pyridin-2-yl)-3-methylpiperidine-3-carboxylic Acid] | – | – | 527 nM | 460% |
| Cc1ccccc1-c1nc(NS(=O)(=O)c2cccc(N3CCCC4(CC4C(=O)O)C3)n2)ccc1C(F)(F)F (stereo not drawn) [Example 441, 5-(6-(N-(6-(o-tolyl)-5-(trifluoromethyl)pyridin-2-yl)sulfamoyl)pyridin-2-yl)-5-azaspiro[2.5]octane-1-carboxylic Acid] | – | – | 2310 nM | 299% |
| CC1(C(=O)O)CCCN(c2cccc(S(=O)(=O)Nc3ccc(Cl)c(-c4ccccc4C4CC4)n3)n2)C1 (stereo not drawn) [Example 431, 1-(6-(N-(5-chloro-6-(2-cyclopropylphenyl)pyridin-2-yl)sulfamoyl)pyridin-2-yl)-3-methylpiperidine-3-carboxylic Acid] | – | – | 1730 nM | 763% |
| Cc1cccc(C)c1-c1ccc(F)c(NS(=O)(=O)c2cccc(N)n2)n1 [Example 93, 6-amino-N-(6-(2,6-dimethylphenyl)-3-fluoropyridin-2-yl)pyridine-2-sulfonamide] | 23.5% | 3550 nM | – | – |
| Cc1c(C#N)cccc1-c1nc(NS(=O)(=O)c2ccnc(N)c2)ccc1Cl [Example 87, 2-amino-N-(5-chloro-6-(3-cyano-2-methylphenyl)pyridin-2-yl)pyridine-4-sulfonamide] | 93.8% | 4100 nM | – | – |
| [2H]C([2H])([2H])c1ccccc1-c1nc(NS(=O)(=O)c2cccc(N)n2)ccc1Cl [Example 20, 6-amino-N-(5-chloro-6-(2-(methyl-d3)phenyl)pyridin-2-yl)pyridine-2-sulfonamide] | 499% | 1760 nM | – | – |
| CCc1ccccc1-c1nc(NS(=O)(=O)c2cccc(N3CCCC(C)(C(=O)O)C3)n2)ccc1Cl (stereo not drawn) [Example 387, 1-(6-(N-(5-chloro-6-(2-ethylphenyl)pyridin-2-yl)sulfamoyl)pyridin-2-yl)-3-methylpiperidine-3-carboxylic Acid] | – | – | 1630 nM | 588% |
| Cc1ccccc1-c1nc(NS(=O)(=O)c2cccc(N3CCN(C(=O)OC(C)(C)C)C[C@@H]3C(=O)O)n2)ccc1C(F)(F)F [Example 347, (2R)-4-[(tert-butoxy)carbonyl]-1-(6-{[6-(2-methylphenyl)-5-(trifluoromethyl)pyridin-2-yl]sulfamoyl}pyridin-2-yl)piperazine-2-carboxylic Acid] | 245% | 1890 nM | – | – |
| Cc1ccccc1-c1nc(NS(=O)(=O)c2cccc(N3CC[C@@H](C(=O)O)C3)n2)ccc1C(F)(F)F [Example 349, (3R)-1-(6-{[6-(2-methylphenyl)-5-(trifluoromethyl)pyridin-2-yl]sulfamoyl}pyridin-2-yl)pyrrolidine-3-carboxylic Acid] | 252% | 1640 nM | – | – |
| Cc1ccc(Cl)c(-c2nc(NS(=O)(=O)c3cccc(N)n3)ccc2Cl)c1F [Example 38, 6-amino-N-(5-chloro-6-(6-chloro-2-fluoro-3-methylphenyl)pyridin-2-yl)pyridine-2-sulfonamide] | 376% | 2000 nM | – | – |
| Cc1ccccc1-c1nc(NS(=O)(=O)c2cccc(N)n2)ccc1C [Example 75, 6-amino-N-(5-methyl-6-(o-tolyl)pyridin-2-yl)pyridine-2-sulfonamide] | 158% | 2840 nM | – | – |
